Data set [1] concerns mechanical allodynia in spinal L5/L6 nerve–ligated neuropathic rats. Put plainly: Mechanical allodynia (von Frey paw withdrawal threshold) after intrathecal injection in spinal nerve-ligated neuropathic rats. It counts as in vivo, rat. As for the experimental part:
An 18-cm polyethylene catheter (PE-10: 0.28-mm inner diameter and 0.61-mm outer diameter, Clay Adams, Parsippany, NJ, USA) with a volume of 13 μL was inserted into the lumbar level of the spinal cord as described elsewhere under inhalational isoflurane anesthesia (4% for induction and 1% for maintenance) run by an anesthesia meter (Ugo Basile Gas Anesthesia System, Comerio, Italy). Two days after recovery from anesthesia, the placement of the catheter in the spinal cord was verified by administration of 4% lidocaine (10 μL, followed by 15 μL of saline for flushing). Rats that had no motor impairment after placement of the intrathecal catheter were considered for the study, and rats that developed immediate bilateral paralysis of the hindlimbs after intrathecal administration of lidocaine were selected for the study. For intrathecal administration of the control and test articles, 10 μL of each drug was injected with a 50-μL microinjector (Shanghai Anting Micro-Injector Factory, Shanghai, China) and was flushed with 15 μL of normal saline solution.
To induce hypersensitivity to neuropathic pain, the rats were subjected to spinal nerve ligation as previously described [Kim and Chung (1992)] and [Zhang et al. (2013)]. Unilateral ligation of the L5 and L6 spinal nerves was performed under inhalational isoflurane anesthesia (4% for induction and 1% for maintenance) run by an anesthesia meter (Ugo Basile Gas Anesthesia System). The left L5 and L6 spinal nerves were isolated and tightly ligated with 6-0 silk thread. After ligation, the wound was sutured and the rats were returned to their home cages for recovery. After spinal nerve ligation, only those rats with marked unilateral allodynia to mechanical stimulation (i.e., a hindpaw withdrawal threshold of less than 8 g on the operated side) and with no major impairment were included in the study. Drug testing started 2–4 weeks after spinal nerve ligation.
To evaluate mechanical allodynia, the animals were acclimatized for at least 30 min to the test environment, namely, a plexiglass box on a metal grid (0.5 cm × 0.5 cm). The hindpaw withdrawal threshold was measured with a 2450 CE Electronic von Frey hair (IITC Life Science Inc, Woodland Hill, CA, USA). An electronic handheld transducer with a No. 15 monofilament was applied perpendicularly to the medial surface of the hindpaws with increasing force (ranging from 0.1 to 90 g) until the rat suddenly withdrew or licked the hindpaw. The lowest force that produced a withdrawal response was considered to be the threshold, which was the mean of three repeated measurements made in a 5-min interval.
(§1) The percentage of maximal possible effect (% MPE) was calculated using the following formula: (postdrug threshold in ipsilateral hindlimb – baseline threshold in ipsilateral hindlimb)/(baseline threshold in contralateral hindlimb – baseline threshold in ipsilateral hindlimb) × 100 ([Bowersox et al., 1996]). A % MPE value near 100 indicates normal mechanical thresholds (i.e., near contralateral thresholds), and a value near 0 indicates allodynia. For the dose-response curve analysis, the parameters (i.e., minimum effect; Emax, median effective concentration or dose, or median toxic or lethal dose [EC50, ED50, TD50, or LD50], and Hill coefficient [n]) were calculated from the individual dose-response curves using the Prism program (version 5.01, GraphPad Software, San Diego, CA, USA). To determine the parameters of the dose-response curves, the values of response (Y) were fitted by non-linear least-squares curves to the relation Y = a + bx, where x = [D]^n/(ED50^n + [D]^n), [C]^n/(EC50^n + [C]^n), [D]^n/(TD50^n + [D]^n) or [D]^n/(LD50^n + [D]^n), to give each value of ED50, EC50, TD50, or LD50 and b (Emax) yielding a minimum residual sum of squares of deviations from the theoretical curve ([Wang and Pang, 1993]).

Data set [2] concerns pain hypersensitivity in spinal nerve-ligated neuropathic rats. Put plainly: Anti-hypersensitivity, normalized (anti-allodynia and anti-hyperalgesia ED50 averaged). The note with it: intrathecal; average of allodynia and hyperalgesia ED50. The format is in vivo, rat. As for the experimental part:
as §1
Table 1 summarizes the ED50 values in mole base for aconitine, benzolyaconine, and aconine to block pain hypersensitivity. Because anti-allodynia and anti-hyperalgesia were closely correlated, their ED50 values were averaged to obtain a normalized ED50 for anti-hypersensitivity. The ED50 ratios for aconitine and benzolyaconine to block mechanical allodynia and heat hyperalgesia were 1:92 and 1:110, with a normalized ED50 ratio of 1:102.

The test system of data set [3] is mice. To be noted: intravenous injection in mice; ref Mizugaki and Ito, 2005; cited from earlier work.

Entries after “also recorded” stand apart in the source; their conditions may differ.

This is an account of results in PMC5051147, “Ester Hydrolysis Differentially Reduces Aconitine-Induced Anti-hypersensitivity and Acute Neurotoxicity: Involvement of Spinal Microglial Dynorphin Expression and Implications for Aconitum Processing” (Frontiers in Pharmacology, 2016).

What is called LD50 is the dose at which mortality reaches 50%. As for `CCN1C[C@]2(COC)[C@H](O)C[C@H](OC)[C@@]34[C@@H]5C[C@@]6(O)[C@H](OC(=O)c7ccccc7)[C@@H]5[C@@](OC(C)=O)([C@@H]([C@H](OC)[C@H]23)[C@@H]14)[C@@H](O)[C@@H]6OC` [Aconitine, aconitine], in data set [1] (intrathecal 100 ng), the “Anti-allodynic effect in ipsilateral paws” value is “marked and reversible anti-allodynic effect; also recorded: marked and reversible anti-allodynia”. Besides, the “Time of peak effect on mechanical allodynia and heat hyperalgesia” value in data set [1] (intrathecal, ipsilateral paws, after injection) came to 1 h. For the same molecule, the “Emax, blockade of mechanical allodynia” value in data set [1] (intrathecal, 1 h after injection) came out at 61.9 % MPE. The “ED50, blockade of mechanical allodynia” value in data set [1] (intrathecal, % MPE at 1 h after injection) was determined as 39 pmol. In addition, the “Effect on withdrawal responses in the contralateral paws” value in data set [1] (intrathecal, mechanical and thermal stimuli) was “did not significantly alter the withdrawal responses in the contralateral paws”. For the same molecule, the “Normalized ED50 for anti-hypersensitivity” value in data set [2] is recorded as 35 pmol. Further, the LD50 in data set [3] is listed as 0.12 mg/kg.
